This passage reports solubility and IC50 results from patent US8343963B2, “Sulfamoyl-phenyl-ureido compounds and their use as medicament” (4SC AG, priority 2009, dated 2013).

Test system in the first data set: not listed separately
Nature of the data set: Solubility and solubility-range determination in 50 mM phosphate buffer at different pH. It is filed as physicochemical. To be noted: aqueous buffer, kinetic from dmso stock, pH 4, 50 mM phosphate buffer, 1% DMSO, 23° C., read-out: Solubility or solubility range. How it is done:
The compounds were dissolved in DMSO at a concentration of 20 mg/ml. These stock solutions were further diluted 1:1 with DMSO (50 μl solution+50 μl DMSO) in seven steps. Subsequently, these solutions were diluted 1:100 (5 μl DMSO-stock+495 μl 50 mM phosphate buffer) in all four pH buffers (respectively: pH=4; pH=6; pH=7.4; pH=9) resulting in a final DMSO concentration of 1% in the buffers. These dilutions were vigorously mixed and transferred into 96-well reading plate. The plates were incubated in a shaker (600 rpm) at 23° C. for 24 hours. After that, the contents of the wells were mixed with a pipette and optical density (OD) was recorded at wavelengths of 550 nm; 600 nm; 650 nm and 700 nm in the Tecan Sunrise plate reader. The cut-off OD sum for an undissolved concentration of a compound was defined as follows: Cut off OD sum=mean blank OD+0.050 OD. For the determination of the solubility range, the following rule was applied: OD>cut off=>compound not dissolved at this concentration OD<cut-off=>compound dissolved at this concentration For the determination of the solubility, a titration curve (OD/concentration) was prepared and the concentrations were determined based on the measured OD of the mixture supernatant after centrifugation. The solubility values are given in μg/ml (table 3).
On to `N=C(c1cccc(NC(=O)Nc2ccc(S(=O)(=O)NCc3ccc(S(N)(=O)=O)cc3)cc2)c1)N1CCS(=O)(=O)CC1` [Compound 44, 4-(3-(3-((1,1-dioxidothiomorpholino)(imino)methyl)phenyl)ureido)-N-(4-sulfamoylbenzyl)benzenesulfonamide], for which the solubility at 24 h was more than 200 µg/mL.

The data set is the same for the next values; noted with them: aqueous buffer, kinetic from dmso stock, pH 6, 50 mM phosphate buffer, 1% DMSO, 23° C., read-out: Solubility or solubility range.
For the molecule `N=C(c1cccc(NC(=O)Nc2ccc(S(=O)(=O)NCc3ccc(S(N)(=O)=O)cc3)cc2)c1)N1CCS(=O)(=O)CC1` [Compound 44, 4-(3-(3-((1,1-dioxidothiomorpholino)(imino)methyl)phenyl)ureido)-N-(4-sulfamoylbenzyl)benzenesulfonamide], the solubility at 24 h was more than 200 µg/mL.

Staying with this data set, now noted: aqueous buffer, kinetic from dmso stock, pH 7.4, 50 mM phosphate buffer, 1% DMSO, 23° C., read-out: Solubility or solubility range.
As to `N=C(c1cccc(NC(=O)Nc2ccc(S(=O)(=O)NCc3ccc(S(N)(=O)=O)cc3)cc2)c1)N1CCS(=O)(=O)CC1` [Compound 44, 4-(3-(3-((1,1-dioxidothiomorpholino)(imino)methyl)phenyl)ureido)-N-(4-sulfamoylbenzyl)benzenesulfonamide], the solubility at 24 h is more than 200 µg/mL.

The same data set, now with this note: aqueous buffer, kinetic from dmso stock, pH 9, 50 mM phosphate buffer, 1% DMSO, 23° C., read-out: Solubility or solubility range.
Turning to `N=C(c1cccc(NC(=O)Nc2ccc(S(=O)(=O)NCc3ccc(S(N)(=O)=O)cc3)cc2)c1)N1CCS(=O)(=O)CC1` [Compound 44, 4-(3-(3-((1,1-dioxidothiomorpholino)(imino)methyl)phenyl)ureido)-N-(4-sulfamoylbenzyl)benzenesulfonamide], the solubility at 24 h was more than 200 µg/mL.

The test system of the next data set is multiresistant Dd2 strain of Plasmodium falciparum. Nature of the data set: Antiplasmodial activity against Dd2 strain of Plasmodium falciparum ([8-3H]hypoxanthine incorporation). The class given is cell-based. To be noted: 66 h, P. falciparum Dd2, 48 h + 18 h with [8-3H]hypoxanthine, 50% parasite growth inhibition, read-out: Antiplasmodia activity (IC50 class). The method, then:
For the determination of the antiplasmodial activity of the compounds described above, the multiresistant Dd2 strain of Plasmodium falciparum was used. The incorporation of [8-^3H]hypoxanthine into the parasitic nucleic acids was measured. The plasmodia were incubated at 0.3% parasitaemia and an erythrocyte haematocrit of 2.5% in the presence of different concentrations of the compounds in a final volume of 200 μl. The medium employed was RPMI 1640 which contained 10% of heat-treated human serum and 3 mg/l of gentamycin. In the incubations, the concentrations of the compounds varied from 0.001 to 100 μM. After 48 h, each batch was treated with 50 μl of [8-^3H]hypoxanthine (1 mCi/ml) and incubated for a further 18 h. The cells were filtered off, washed and suspended in 20 μl of scintillation fluid. The radioactive hypoxanthine absorbed by the parasites was then quantified using a scintillation counter. The results were presented graphically and the IC50 value was determined using a fitting function. The value IC50, the ‘inhibition constant’, indicates the value in μMol/l at which 50% parasite growth inhibition occurs (R. E. Desjardins, et al., Antimicrobiol. Agent Chemother. 16, pp. 710-718, 1979; J. D. Chulay, et al., Exp. Parasitol. 55, pp. 138-146, 1983).
In the case of `N=C(c1cccc(NC(=O)Nc2ccc(S(=O)(=O)NCc3ccc(S(N)(=O)=O)cc3)cc2)c1)N1CCS(=O)(=O)CC1` [Compound 44, 4-(3-(3-((1,1-dioxidothiomorpholino)(imino)methyl)phenyl)ureido)-N-(4-sulfamoylbenzyl)benzenesulfonamide], the IC50 fell in the range of 20 to 200 nM. Same read-out and setting: the figure for `C=CCN1CCN(C(=N)c2cccc(NC(=O)Nc3ccc(S(=O)(=O)NCc4ccc(S(N)(=O)=O)cc4)cc3)c2)CC1` [Compound 39, 4-(3-(3-((4-allylpiperazin-1-yl)(imino)methyl)phenyl)ureido)-N-(4-sulfamoylbenzyl)benzenesulfonamide] is less than 20 nM; for `COCCN(CCOC)C(=N)c1cccc(NC(=O)Nc2ccc(S(=O)(=O)NCc3ccc(S(N)(=O)=O)cc3)cc2)c1` [Compound 32, N,N-bis(2-methoxyethyl)-3-(3-(4-(N-(4-sulfamoylbenzyl)sulfamoyl)phenyl)ureido)benzimidamide] it is 210 to 990 nM; for `N=C(c1cccc(NC(=O)Nc2ccc(S(=O)(=O)c3ccc([N+](=O)[O-])cc3)cc2)c1)N1CCOCC1` [Compound 6, 1-(3-(imino(morpholino)methyl)phenyl)-3-(4-(4-nitrophenylsulfonyl)phenyl)urea] it is 20 to 200 nM. As to `N=C(c1cccc(NC(=O)Nc2ccc(S(=O)(=O)c3ccc(Cl)cc3)cc2)c1)N1CCC(O)CC1` [Compound 11, 1-(4-(4-chlorophenylsulfonyl)phenyl)-3-(3-((4-hydroxypiperidin-1-yl)(imino)methyl)phenyl)urea], the IC50 was 20 to 200 nM. Take `CCCCN1CCN(C(=N)c2cccc(NC(=O)Nc3ccc(S(=O)(=O)N4CCOCC4)cc3)c2)CC1` [Compound 21, 1-(3-((4-butylpiperazin-1-yl)(imino)methyl)phenyl)-3-(4-(morpholinosulfonyl)phenyl)urea]: the IC50 was not below 1000 nM. Still for that read-out and setting: the same measure for `N=C(c1cccc(NC(=O)Nc2ccc(S(=O)(=O)c3ccc([N+](=O)[O-])cc3)cc2)c1)N1CCCC1` [Compound 7, 1-(3-(imino(pyrrolidin-1-yl)methyl)phenyl)-3-(4-(4-nitrophenylsulfonyl)phenyl)urea]: 20 to 200 nM. `CN1CCN(C(=N)c2cccc(NC(=O)Nc3ccc(S(=O)(=O)c4ccc([N+](=O)[O-])cc4)cc3)c2)CC1` [Compound 8, 1-(3-(imino(4-methylpiperazin-1-yl)methyl)phenyl)-3-(4-(4-nitrophenylsulfonyl)phenyl)urea]: the IC50 is not below 1000 nM. On the same count and under the same terms, the figure for `CC(C)(C)OC(=O)N1CCN(C(=N)c2cccc(NC(=O)Nc3ccc(S(=O)(=O)NCc4ccc(S(N)(=O)=O)cc4)cc3)c2)CC1` [Compound 51, tert-butyl 4-(imino(3-(3-(4-(N-(4-sulfamoylbenzyl)sulfamoyl)phenyl)ureido)phenyl)methyl)piperazine-1-carboxylate] is 210 to 990 nM; for `CCCCCCCN1CCN(C(=N)c2cccc(NC(=O)Nc3ccc(S(=O)(=O)NCc4ccc(S(N)(=O)=O)cc4)cc3)c2)CC1` [Compound 56, 4-(3-(3-((4-heptylpiperazin-1-yl)(imino)methyl)phenyl)ureido)-N-(4-sulfamoylbenzyl)benzenesulfonamide] it is 20 to 200 nM. Regarding `N=C(c1cccc(NC(=O)Nc2ccc(S(=O)(=O)NCc3ccc(S(N)(=O)=O)cc3)cc2)c1)N1CCN(CC2OCCO2)CC1` [Compound 67, 4-(3-(3-((4-((1,3-dioxolan-2-yl)methyl)piperazin-1-yl)(imino)methyl)phenyl)ureido)-N-(4-sulfamoylbenzyl)benzene sulfonamide], the IC50 is 20 to 200 nM. The same measure, in the same setting: the figure for `N=C(c1cccc(NC(=O)Nc2ccc(S(=O)(=O)NCc3ccc(S(N)(=O)=O)cc3)cc2)c1)N1CCN(CCO)CC1` [Compound 28, 4-(3-(3-((4-(2-hydroxyethyl)piperazin-1-yl)(imino)methyl)phenyl)ureido)-N-(4-sulfamoylbenzyl)benzenesulfonamide] is 20 to 200 nM. Turning to `CCCCN1CCN(C(=N)c2cccc(NC(=O)Nc3ccc(S(=O)(=O)NNc4ccc(S(N)(=O)=O)cc4)cc3)c2)CC1` [Compound 40, 4-(2-(4-(3-(3-((4-butylpiperazin-1-yl)(imino)methyl)phenyl)ureido)phenylsulfonyl)hydrazinyl)benzenesulfonamide], the IC50 was not below 1000 nM. In the case of `N=C(c1cccc(NC(=O)Nc2ccc(S(=O)(=O)c3ccc(Br)cc3)cc2)c1)N1CCC(C(N)=O)CC1` [Compound 16, 1-((3-(3-(4-(4-bromophenylsulfonyl)phenyl)ureido)phenyl)(imino)methyl)piperidine-4-carboxamide], the IC50 is 20 to 200 nM. The same measure, in the same setting: the figure for `COC(=O)N1CCN(C(=N)c2cccc(NC(=O)Nc3ccc(S(=O)(=O)Nc4ccc(S(N)(=O)=O)cc4)cc3)c2)CC1` [Compound 24, methyl 4-(imino(3-(3-(4-(N-(4-sulfamoylphenyl)sulfamoyl)phenyl)ureido)phenyl)methyl)piperazine-1-carboxylate] is not below 1000 nM. Turning to `CCCCCN1CCN(C(=N)c2cccc(NC(=O)Nc3ccc(S(=O)(=O)NCc4ccc(S(N)(=O)=O)cc4)cc3)c2)CC1` [Compound 55, 4-(3-(3-(imino(4-pentylpiperazin-1-yl)methyl)phenyl)ureido)-N-(4-sulfamoylbenzyl)benzenesulfonamide], the IC50 was less than 20 nM. Same read-out and setting: the same measure for `CCN(CCO)C(=N)c1cccc(NC(=O)Nc2ccc(S(=O)(=O)NCc3ccc(S(N)(=O)=O)cc3)cc2)c1` [Compound 30, N-ethyl-N-(2-hydroxyethyl)-3-(3-(4-(N-(4-sulfamoylbenzyl)sulfamoyl)phenyl)ureido)benzimidamide]: 210 to 990 nM; for `CN(C)C1CCN(C(=N)c2cccc(NC(=O)Nc3ccc(S(=O)(=O)NCc4ccc(S(N)(=O)=O)cc4)cc3)c2)C1` (stereo not drawn) [Compound 49, 4-(3-(3-((3-(dimethylamino)pyrrolidin-1-yl)(imino)methyl)phenyl)ureido)-N-(4-sulfamoylbenzyl)benzenesulfonamide]: 20 to 200 nM; for `N=C(c1cccc(NC(=O)Nc2ccc(S(=O)(=O)NCc3ccc(S(N)(=O)=O)cc3)cc2)c1)N1CCC(=O)CC1` [Compound 27, 4-(3-(3-(imino(4-oxopiperidin-1-yl)methyl)phenyl)ureido)-N-(4-sulfamoylbenzyl)benzenesulfonamide]: 210 to 990 nM. With `N=C(c1cccc(NC(=O)Nc2ccc(S(=O)(=O)NCc3ccc(S(N)(=O)=O)cc3)cc2)c1)N1CCC(CO)CC1` [Compound 29, 4-(3-(3-((4-(hydroxymethyl)piperidin-1-yl)(imino)methyl)phenyl)ureido)-N-(4-sulfamoylbenzyl)benzenesulfonamide], the IC50 lay in the range of 210 to 990 nM. Regarding `CC(=O)N1CCN(C(=N)c2cccc(NC(=O)Nc3ccc(S(=O)(=O)NCc4ccc(S(N)(=O)=O)cc4)cc3)c2)CC1` [Compound 57, 4-(3-(3-((4-acetylpiperazin-1-yl)(imino)methyl)phenyl)ureido)-N-(4-sulfamoylbenzyl)benzenesulfonamide], the IC50 fell in the range of 20 to 200 nM. `N=C(c1cccc(NC(=O)Nc2ccc(S(=O)(=O)NCc3ccc(S(N)(=O)=O)cc3)cc2)c1)N1CCN(Cc2ccncc2)CC1` [Compound 45, 4-(3-(3-(imino (4-(pyridin-4-ylmethyl)piperazin-1-yl)methyl)phenyl)ureido)-N-(4-sulfamoylbenzyl)benzenesulfonamide]: the IC50 is 210 to 990 nM. On the same count and under the same terms, the same measure for `CCCCN1CCN(C(=N)c2cccc(NC(=O)Nc3ccc(S(=O)(=O)NCc4c(F)ccc(F)c4F)cc3)c2)CC1` [Compound 35, 4-(3-(3-((4-butylpiperazin-1-yl)(imino)methyl)phenyl)ureido)-N-(2,3,6-trifluorobenzyl)benzenesulfonamide]: 210 to 990 nM.

Broadly, the solubility is the dissolved amount per volume that the medium holds. The IC50 is the concentration that gives 50% inhibition.
